The data set in a line: xn = mol fraction of the nth substance listed. The following applies: 101 kPa, Liquid, x1 = 0.

Take `c1ccc2nc3ccccc3cc2c1` [acridine] + CCCCCCCCCCCCCC: the binary diffusion coefficient reads like this: (333.2 K) 1.27e-09 m2/s; (353.2 K) 1.55e-09 m2/s; (373.2 K) 2e-09 m2/s; (393.2 K) 2.4e-09 m2/s; (413.2 K) 2.93e-09 m2/s; (423.2 K) 3.74e-09 m2/s. Also, the binary diffusion coefficient turned out to be 3.96e-09 m2/s (453.2 K) and 5.08e-09 m2/s (473.2 K).

For the compound `c1ccc2cc3ccccc3cc2c1` [anthracene] + CCCCCCCCCCCCCC, the binary diffusion coefficient by setting is: (333.2 K) 9.4e-10 m2/s; (353.2 K) 1.36e-09 m2/s; (373.2 K) 1.38e-09 m2/s; (393.2 K) 2.03e-09 m2/s; (433.2 K) 3.43e-09 m2/s; (443.2 K) 4.57e-09 m2/s. Also, under “453.2 K”, the binary diffusion coefficient is 5.56e-09 m2/s.

As for `c1ccc2sccc2c1` [benzo[b]thiophene] + CCCCCCCCCCCCCC, the binary diffusion coefficient by setting is: (333.2 K) 1.19e-09 m2/s; (353.2 K) 1.65e-09 m2/s; (373.2 K) 2.1e-09 m2/s; (393.2 K) 2.51e-09 m2/s; (413.2 K) 3.19e-09 m2/s; (423.2 K) 3.83e-09 m2/s. Besides, the binary diffusion coefficient (453.2 K) was determined as 4.77e-09 m2/s.

`c1ccc2c(c1)sc1ccccc12` [dibenzothiophene] + CCCCCCCCCCCCCC: the binary diffusion coefficient was 1.06e-09 m2/s (333.2 K); 1.41e-09 m2/s (353.2 K); 2.13e-09 m2/s (393.2 K); 2.61e-09 m2/s (413.2 K); 3.14e-09 m2/s (423.2 K); 3.41e-09 m2/s (433.2 K). Further, the binary diffusion coefficient worked out at 3.96e-09 m2/s (453.2 K) and 5.01e-09 m2/s (463.2 K).

For `c1ccc2ccccc2c1` [naphthalene] + CCCCCCCCCCCCCC, the binary diffusion coefficient reads like this: (313.2 K) 1.03e-09 m2/s; (333.2 K) 1.42e-09 m2/s; (353.2 K) 1.86e-09 m2/s; (373.2 K) 2.28e-09 m2/s; (418.2 K) 3.69e-09 m2/s; (433.2 K) 4.64e-09 m2/s. The binary diffusion coefficient (453.2 K) came to 5.56e-09 m2/s.

(Values after the NIST ThermoML archive (doi:10.1021/je700535q).)
